# Legend:
# EMT6 tumor cells [1] = test: Drug efficacy test with combined use of anti-CTLA-4 antibody in tumor-bearing model mouse with subcutaneous transplantation of EMT6
# Protocol: The anti-CTLA-4 antibody (hereinafter, also referred to as CTLA-4), Gem, and the liposome composition according to the embodiment of the present invention were used as test substances. […] The liposome composition according to the embodiment of the present invention was diluted with 5% Glu prior to use.
# 1.7×10^6 EMT6 cells, which are a mouse breast cancer cell line, were subcutaneously transplanted into the flank of female Balb/c mice to form subcutaneous tumors. Using the tumor volume as an index, inhibitory effects of combined administration of CTLA-4 and Gem and combined administration of CTLA-4 and the liposome composition according to the embodiment of the present invention on subcutaneous tumors were evaluated.
# CTLA-4 and a solvent therefor (PBS) were intraperitoneally administered twice a week for a total of 3 weeks, and Gem, the liposome composition according to the embodiment of the present invention, and a solvent therefor (5% Glu) were administered once a week by tail vein administration for a total of 3 weeks.
# After the 3-week administration was completed, the drug was discontinued, and the tumor volume measurement was continued for 4 weeks. Test subjects with a tumor volume of more than 10% of body weight were euthanized during the test, and drug efficacy analysis was carried out based on the survival rate (tumor-free survival %).
# Group configuration was set to a combination of 5% Glu and PBS for Group 1, a combination of 5% Glu and CTLA-4 (10 mg/kg) for Group 2, a combination of Gem (240 mg/kg) and PBS for Group 3, a combination of Gem (240 mg/kg) and CTLA-4 (10 mg/kg) for Group 4, a combination of the liposome composition according to the embodiment of the present invention (1 mg/kg) and PBS for Group 5, a combination of the liposome composition according to the embodiment of the present invention (1 mg/kg) and CTLA-4 (10 mg/kg) for Group 6, a combination of the liposome composition according to the embodiment of the present invention (4 mg/kg) and PBS for Group 7, and a combination of the liposome composition according to the embodiment of the present invention (4 mg/kg) and CTLA-4 (10 mg/kg) for Group 8.
# (§1) In addition, Lipo (1) and Lipo (4) mean that the liposome composition according to the embodiment of the present invention was administered to a subject at a dose of 1 mg/kg and a dose of 4 mg/kg, respectively.
# The survival rate (tumor-free survival %) in a case where a test subject with a tumor volume of more than 10% of body weight was euthanized was calculated, and the results of a survival curve by the Kaplan-Meier method are shown in FIG. 29. […] As a statistical analysis of an effect of prolonging the survival time, a log-rank test was carried out, and a p value of less than 5% between the groups was determined to have a statistically significant difference. Graghpad Prism version 5.03 was used for the calculation of median survival calculated from the survival curve by Kaplan-Meier method and the statistical analysis.
# EMT6 tumor cells [2] = test: Drug efficacy test with combined use of PD-1 in tumor-bearing model mouse with subcutaneous transplantation of EMT6; format: in vivo
# Excerpt: As the test substance, the same substance as in Example 1 was used.
# Changes in tumor volume are shown in FIG. 12 (mean value) and FIGS. 13 to 20 (on the basis of an individual). […] In Table 5 and Table 6, “Number of test subjects in complete remission” means that the tumor volume was zero.
# EMT6 tumor cells [3] = test: Drug efficacy test with combined use of PD-L1 in tumor-bearing model mouse with subcutaneous transplantation of EMT6
# Excerpt: An anti-PD-L1 antibody (hereinafter, also referred to as PD-L1), gemcitabine (hereinafter, also referred to as Gem), and gemcitabine-containing liposome composition (hereinafter, also referred to as liposome composition according to the embodiment of the present invention) were used as test substances. Gemcitabine hydrochloride (manufactured by Teva Pharmaceutical Industries Ltd.) dissolved in physiological saline was used as Gem. The liposome composition according to the embodiment of the present invention was diluted with a 5% glucose solution for injection (hereinafter, also referred to as 5% Glu; 0.05 g/mL) prior to use.
# 3×10^6 EMT6 cells, which are a mouse breast cancer cell line, were subcutaneously transplanted into the flank of female Balb mice to form subcutaneous tumors. Using the tumor volume as an index, inhibitory effects of combined administration of PD-L1 and Gem and combined administration of PD-L1 and the liposome composition according to the embodiment of the present invention on subcutaneous tumors were evaluated.
# PD-L1 and an isotype control antibody thereof (hereinafter, also referred to as Iso antibody) were intraperitoneally administered twice a week for a total of 3 weeks, and Gem, the liposome composition according to the embodiment of the present invention, and a solvent therefor (5% Glu) were administered once a week by tail vein administration for a total of 3 weeks.
# After the 3-week administration was completed, the drug was discontinued, and the tumor volume measurement was continued for 2 weeks. Test subjects with a tumor volume of more than 10% of body weight were euthanized during the test, and drug efficacy analysis was carried out based on the survival rate (tumor-free survival %).
# Group configuration was set to a combination of 5% Glu and Iso antibody (10 mg/kg) for Group 1, a combination of 5% Glu and PD-L1 (10 mg/kg) for Group 2, a combination of Gem (240 mg/kg) and Iso antibody (10 mg/kg) for Group 3, a combination of Gem (240 mg/kg) and PD-L1 (10 mg/kg) for Group 4, a combination of the liposome composition according to the embodiment of the present invention (1 mg/kg) and Iso antibody (10 mg/kg) for Group 5, a combination of the liposome composition according to the embodiment of the present invention (1 mg/kg) and PD-L1 (10 mg/kg) for Group 6, a combination of the liposome composition according to the embodiment of the present invention (4 mg/kg) and Iso antibody (10 mg/kg) for Group 7, and a combination of the liposome composition according to the embodiment of the present invention (4 mg/kg) and PD-L1 (10 mg/kg) for Group 8.
# as §1
# As a statistical analysis of an effect of prolonging the survival time, a log-rank test was carried out, and a p value of less than 5% between the groups was determined to have a statistically significant difference.
# [4] = system: intratumoral immune cells (CD8-positive T cells, M1 and M2 macrophages) of EMT6 tumors; test: Changes in immune cell composition in tumor in tumor-bearing model mouse with subcutaneous transplantation of EMT6 (flow cytometry); format: in vivo; conditions: tumors excised Days 16 and 17 after start; Gem 240 mg/kg or Lipo 4 mg/kg 3 times; CTLA-4 10 mg/kg or PBS 5 times
# Excerpt: It is said that a high percentage of CD8-positive T cells in the tumor and a high ratio of M1 macrophages compared to M2 macrophages result in an antitumor environment (reference: J Clin Invest. 2012; 122(3); 787-95).
# Tumors were excised on Days 16 and 17 after the start of administration and used for analysis of intratumoral immune cells.
# The excised tumor was made into a cell-dispersed state using Tumor Dissociation Kit, mouse (catalog number 130-096-730, manufactured by Miltenyi Biotec GmbH), and intratumoral immune cells were isolated using CD45 (TIL) MicroBeads (catalog number 130-110-618, manufactured by Miltenyi Biotec GmbH). Dead cells were stained using LIVE/DEAD (trademark) Fixable Yellow Dead Cell Stain Kit (catalog number L34968, manufactured by Invitrogen Corporation), and various immune cell markers were stained using the following fluorescently labeled antibodies. […] The samples were analyzed using a flow cytometer (Attune NxT, manufactured by Invitrogen Corporation). CD8-positive T cells (CD3-positive, CD8-positive), M1 macrophages (CD11b-positive, F4/80-positive, MHC Class II-positive, CD206-negative), and M2 macrophages (CD11b-positive, F4/80-positive, MHC Class II-negative, CD206-positive) were identified, and the percentage of each cell group was calculated.
# [5] = Gem 240 mg/kg or Lipo 1 mg/kg, CTLA-4 10 mg/kg or PBS
structure (smiles),measurement,setting,value
"Nc1ccn([C@@H]2O[C@H](CO)[C@@H](O)C2(F)F)c(=O)n1 [Gem, (+)-2′-deoxy-2′,2′-difluorocytidine]",Median survival Percentage (control group / comparative group),EMT6 tumor cells [1]; [5],1.40
same,tumor growth inhibitory effect (in words),EMT6 tumor cells [1]; [5],tumor growth could not be stopped
same,Median survival,"EMT6 tumor cells [1]; Kaplan-Meier, euthanasia at tumor volume >10% of body weight, Gem 240 mg/kg or Lipo 1 mg/kg, CTLA-4 10 mg/kg or PBS",29.5
same,Complete remission rate (%),"EMT6 tumor cells [1]; by day 52, Gem 240 mg/kg or Lipo 1 mg/kg, CTLA-4 10 mg/kg or PBS",0%
same,Number of test subjects in complete remission,"EMT6 tumor cells [1]; by post-transplantation day 52, 8 per group, Gem 240 mg/kg or Lipo 1 mg/kg once/3W tail, CTLA-4 10 mg/kg or PBS twice/3W i.p.",0
same,test subjects subjected to euthanasia by the day of test termination,"EMT6 tumor cells [1]; post-transplantation day 52, out of 8, Gem 240 mg/kg or Lipo 1 mg/kg, CTLA-4 10 mg/kg or PBS",All test subjects
same,Log-rank Test Determination,"EMT6 tumor cells [1]; single agents vs 5% Glu + PBS, combinations vs same drug + PBS, Gem 240 mg/kg or Lipo 1 mg/kg, CTLA-4 10 mg/kg",b (“b” indicates p<0.001)
same,effect of prolonging the survival time (in words),"EMT6 tumor cells [1]; single agents vs Group 1, combinations vs same drug + PBS, Gem 240 mg/kg or Lipo 1 mg/kg, CTLA-4 10 mg/kg",statistically significant effect
same,tumor growth inhibitory effect (in words),"EMT6 tumor cells [2]; Gem 240 mg/kg or Lipo 2 mg/kg, PD-1 10 mg/kg or PBS",tumor growth could not be stopped
same,Complete remission rate (%),"EMT6 tumor cells [2]; by day 41, Gem 240 mg/kg or Lipo 2 mg/kg, PD-1 10 mg/kg or PBS",0%
same,Number of test subjects in complete remission,"EMT6 tumor cells [2]; by post-transplantation day 41, 8 per group, Gem 240 mg/kg or Lipo 2 mg/kg once/3W tail, PD-1 10 mg/kg or PBS twice/3W i.p.",0
same,Tumor volume mean value (mm^3),"EMT6 tumor cells [2]; day 6 after transplantation, Gem 240 mg/kg or Lipo 2 mg/kg, PD-1 10 mg/kg or PBS",432 mm^3
same,Tumor volume mean value (mm^3),"EMT6 tumor cells [2]; day 9 after transplantation, Gem 240 mg/kg or Lipo 2 mg/kg, PD-1 10 mg/kg or PBS",473 mm^3
same,Tumor volume mean value (mm^3),"EMT6 tumor cells [2]; day 13 after transplantation, Gem 240 mg/kg or Lipo 2 mg/kg, PD-1 10 mg/kg or PBS",1129 mm^3
same,Tumor volume mean value (mm^3),"EMT6 tumor cells [2]; day 16 after transplantation, Gem 240 mg/kg or Lipo 2 mg/kg, PD-1 10 mg/kg or PBS",1228 mm^3
same,Tumor volume mean value (mm^3),"EMT6 tumor cells [2]; day 20 after transplantation, Gem 240 mg/kg or Lipo 2 mg/kg, PD-1 10 mg/kg or PBS",2265 mm^3
same,Tumor volume mean value (mm^3),"EMT6 tumor cells [2]; day 23 after transplantation, Gem 240 mg/kg or Lipo 2 mg/kg, PD-1 10 mg/kg or PBS",3521 mm^3
same,animals subjected to euthanasia by the day of test termination,"EMT6 tumor cells [2]; post-transplantation day 41, Gem 240 mg/kg or Lipo 2 mg/kg, PD-1 10 mg/kg or PBS",all animals
same,tumor growth inhibitory effect (in words),"EMT6 tumor cells [3]; Gem 240 mg/kg or Lipo 1 mg/kg, PD-L1 or Iso antibody 10 mg/kg",tumor growth could not be stopped
same,Median survival,"EMT6 tumor cells [3]; Kaplan-Meier, euthanasia at tumor volume >10% of body weight, Gem 240 mg/kg or Lipo 1 mg/kg, PD-L1 or Iso antibody 10 mg/kg",20
same,Complete remission rate (%),"EMT6 tumor cells [3]; by day 41, Gem 240 mg/kg or Lipo 1 mg/kg, PD-L1 or Iso antibody 10 mg/kg",0%
same,Number of test subjects in complete remission,"EMT6 tumor cells [3]; by post-transplantation day 41, 8 per group, Gem 240 mg/kg or Lipo 1 mg/kg once/3W tail, PD-L1 or Iso antibody 10 mg/kg twice/3W i.p.",0
same,test subjects subjected to euthanasia by the day of test termination,"EMT6 tumor cells [3]; post-transplantation day 41, Gem 240 mg/kg or Lipo 1 mg/kg, PD-L1 or Iso antibody 10 mg/kg",all test subjects
same,effect of prolonging the survival time (in words),"EMT6 tumor cells [3]; single agents vs Group 1, combinations vs same drug + Iso antibody, Gem 240 mg/kg or Lipo 1 mg/kg, PD-L1 10 mg/kg",No significant prolongation
same,percentage of CD8-positive T cells in the tumor (in words),[4],not changed

# From patent US12201723B2, “Combined pharmaceutical formulation comprising gemcitabine-containing liposome composition and immune checkpoint inhibitor” (FUJIFILM Corporation, priority 2018, dated 2025)
